Experimental data: patent publication US8912120B2, “Herbicidal compositions comprising 4-amino-3-chloro-5-fluoro-6-(4-chloro-2-fluoro-3-methoxyphenyl) pyridine-2-carboxylic acid or a derivative thereof and synthetic auxin herbicides” (Dow AgroSciences, LLC., priority 2012, dated 2014)
Where a name gives a salt, the structure may show the parent alone.

Columns and labels:
[1] = test system: VIOTR; test: Example IV: postemergence foliar-applied herbicidal mixtures, cereal crops, VIOTR; format: in vivo, Viola tricolor (wild pansy); conditions: alone, foliar, 20-22 days
Protocol: (§1) Seeds of the desired test plant species were planted in Sun Gro MetroMix 306 planting mixture, which typically has a pH of 6.0 to 6.8 and an organic matter content of about 30 percent, in plastic pots with a surface area of 103.2 square centimeters (cm^2). […] The plants were grown for 7-36 days in a greenhouse with an approximate 14 hour photoperiod which was maintained at about 18° C. during the day and 17° C. during the night.
(§2) Spray solutions of the second cereal herbicide and experimental compound mixtures were prepared by adding the stock solutions to the appropriate amount of dilution solution to form 12 mL spray solution with active ingredients in two- and three-way combinations.

[2] = test system: POLCO; test: Example IV: postemergence foliar-applied herbicidal mixtures, cereal crops, POLCO; format: in vivo, Polygonum convolvulus (wild buckwheat); conditions: alone, foliar, 20-22 days
Protocol: as §1, §2

[3] = test system: STEME; test: Example IV: postemergence foliar-applied herbicidal mixtures, cereal crops, STEME; format: in vivo, Stellaria media (common chickweed); conditions: alone, 10 gai/ha, 20-22 days
Protocol: as §1, §2

[4] = test system: BRSNN; test: Example IV: postemergence foliar-applied herbicidal mixtures, cereal crops, BRSNN; format: in vivo, Brassica napus (volunteer canola); conditions: alone, 3 gai/ha, foliar, 20-22 days
Protocol: as §1, §2

[5] = test system: CIRAR; test: Example IV: postemergence foliar-applied herbicidal mixtures, cereal crops, CIRAR; format: in vivo, Cirsium arvense (Canada thistle); conditions: alone, 20-22 days
Protocol: as §1, §2

[6] = test system: AMARE; test: Example IV: postemergence foliar-applied herbicidal mixtures, weed control in cereal crops in the greenhouse, AMARE; format: in vivo, Amaranthus retroflexus (redroot pigweed); conditions: alone, 35 gai/ha, 20-22 days
Protocol: as §1, §2

[7] = test system: ECHOR; test: Example II: in-water applied herbicidal mixtures, transplanted paddy rice, ECHOR; format: in vivo, Echinochloa oryzoides (early watergrass)
Protocol: (§3) The prepared mud was dispensed in 365 mL aliquots into 16-ounce (oz.) non-perforated plastic pots with a surface area of 86.59 square centimeters (cm^2) leaving a headspace of 3 centimeters (cm) in each pot Mud was allowed to dry overnight prior to planting or transplanting. Rice seeds were planted in Sun Gro MetroMix® 306 planting mixture, which typically has a pH of 6.0 to 6.8 and an organic matter content of about 30 percent, in plastic plug trays. Seedlings at the second or third leaf stage of growth were transplanted into 840 mL of mud contained in 32-oz. non-perforated plastic pots with a surface area of 86.59 cm^2 4 days prior to herbicide application. […] Nutrients were added as Osmocote® (19:6:12, N:P:K^+ minor nutrients) at 2 g per 16-oz. pot and 4 g per 32-oz. pot.
(§4) Applications were made by injecting with a pipetter appropriate amounts of the application solutions, individually and sequentially, into the aqueous layer of the paddy. Control plants were treated in the same manner with the solvent blank. Applications were made so that all treated plant material received the same concentrations of acetone and crop oil concentrate.

[8] = test system: ECHCG; test: Example II: in-water applied herbicidal mixtures, transplanted paddy rice, ECHCG; format: in vivo, Echinochloa crus-galli (barnyardgrass); conditions: for Visual Weed Control (%) Obs: 22 DAA; for Visual Weed Control (%) - 21 DAA ECHCG Obs: in-water application
Protocol: as §3, §4

[9] = test system: SCPJU; test: Example II: in-water applied herbicidal mixtures, transplanted paddy rice, SCPJU; format: in vivo, Schoenoplectus juncoides (Japanese bulrush); conditions: for Visual Weed Control (%) Obs: 22 DAA; for Visual Weed Control (%) - 21 DAA SCPJU Obs: in-water application
Protocol: as §3, §4

[10] = test system: FIMMI; test: Example II: in-water applied herbicidal mixtures, transplanted paddy rice, FIMMI; format: in vivo, Fimbristylis miliacea (globe fringerush); conditions: 22 DAA
Protocol: as §3, §4

[11] = test system: LEFCH; test: Example II: in-water applied herbicidal mixtures, transplanted paddy rice, LEFCH; format: in vivo, Leptochloa chinensis (Chinese sprangletop); conditions: for Visual Weed Control (%) Obs: 22 DAA; for Visual Weed Control (%) - 21 DAA LEFCH Obs: in-water application
Protocol: as §3, §4

[12] = test system: CYPRO; test: Example II: in-water applied herbicidal mixtures, weed control in transplanted paddy rice (greenhouse), CYPRO; format: in vivo, Cyperus rotundus (purple nutsedge); conditions: for Visual Weed Control (%) Obs: 22 DAA
Protocol: as §3, §4

[13] = test system: SONAR; test: Example V: postemergence herbicidal activity of mixtures in forage crops, SONAR; format: in vivo, Sonchus arvensis (field sowthistle); conditions: alone, foliar, approximately 21 days
Protocol: as §1, with “Seeds or root cuttings” for “Seeds”, “MetroMix®” for “MetroMix”, “126.6” for “103.2”, “14-60” for “7-36”, “approximately 28°” for “about 18°”, “24°” for “17°”
(§5) Spray solutions of the second herbicide or experimental compound mixtures were prepared by adding the stock solutions to the appropriate amount of dilution solution to form 12 mL spray solution with active ingredients in two-way combinations.

[14] = test system: PANDI; test: Example III: postemergence foliar-applied herbicidal mixtures, row crop weeds, PANDI; format: in vivo, Panicum dichotomiflorum (fall panicum); conditions: 16 DAA
Protocol: (§6) The plants were grown for 7-31 days (d) in a greenhouse with an approximate 15 hour (h) photoperiod which was maintained at about 23-29° C. during the day and 22-28° C. during the night.

[15] = test system: PANMI; test: Example III: postemergence foliar-applied herbicidal mixtures, row crop weeds, PANMI; format: in vivo, Panicum miliaceum (wild-proso millet); conditions: 16 DAA
Protocol: as §6

[16] = test system: ELEIN; test: Example III: postemergence foliar-applied herbicidal mixtures, weeds common to row crops such as corn and soybeans (greenhouse), ELEIN; format: in vivo, Eleusine indica (goosegrass); conditions: 14 DAA
Protocol: as §6

[17] = test system: SINAR; test: Example V: postemergence herbicidal activity of mixtures in forage crops, SINAR; format: in vivo, Sinapis arvensis (wild mustard); conditions: alone, foliar, approximately 21 days
Protocol: as §1, with “Seeds or root cuttings” for “Seeds”, “MetroMix®” for “MetroMix”, “126.6” for “103.2”, “14-60” for “7-36”, “approximately 28°” for “about 18°”, “24°” for “17°”
as §5

[18] = test system: CENMA; test: Example V: postemergence herbicidal activity of mixtures in forage crops, CENMA; format: in vivo, Centaurea maculosa (spotted knapweed); conditions: alone, foliar, approximately 21 days
Protocol: as §1, with “Seeds or root cuttings” for “Seeds”, “MetroMix®” for “MetroMix”, “126.6” for “103.2”, “14-60” for “7-36”, “approximately 28°” for “about 18°”, “24°” for “17°”
as §5

[19] = 280 gae/ha, in-water application

Nc1c(Cl)c(Cl)nc(C(=O)O)c1Cl [Picloram, 4-amino-3,5,6-trichloro-2-pyridinecarboxylic acid]
VIOTR Ob (observed value) ([1]; 10 gai/ha): 3% | POLCO Ob (observed value) ([2]; 10 gai/ha): 40% | STEME Ob (observed value) [3]: 0%

Nc1cc(Cl)nc(C(=O)O)c1Cl [Aminopyralid, 4-amino-3,6-dichloro-2-pyridinecarboxylic acid]
BRSNN Ob (observed value) [4]: 0% | POLCO Ob (observed value) ([2]; 3 gai/ha): 3% | CIRAR Ob (observed value) ([5]; 3 gai/ha): 13%

Nc1c(Cl)c(F)nc(OCC(=O)O)c1Cl [Fluroxypyr, 2-[(4-amino-3,5-dichloro-6-fluoro-2-pyridinyl)oxy]acetic acid]
VIOTR Ob (observed value) ([1]; 35 gai/ha): 10% | AMARE Ob (observed value) [6]: 33% | POLCO Ob (observed value) ([2]; 35 gai/ha): 23% | CIRAR Ob (observed value) ([5]; 35 gai/ha): 3%

O=C(O)COc1nc(Cl)c(Cl)cc1Cl [Triclopyr Choline Salt, 2-hydroxy-N,N,N-trimethylethanaminium 2-((3,5,6-trichloropyridin-2-yl)oxy)acetate, reference compound]
pest or weed control at 70 g/ha ([7]; Echinochloa oryzoides, 528 h, 22 DAA, 70 gae/ha, read-out: Visual Weed Control (%) Obs): 10% | pest or weed control at 140 g/ha ([7]; Echinochloa oryzoides, 528 h, 22 DAA, 140 gae/ha, read-out: Visual Weed Control (%) Obs): 15% | Visual Weed Control (%) Obs ([8]; 70 gae/ha): 15% | Visual Weed Control (%) Obs ([8]; 140 gae/ha): 20% | Visual Weed Control (%) Obs ([9]; 70 gae/ha): 15% | Visual Weed Control (%) Obs ([9]; 140 gae/ha): 50% | Visual Weed Control (%) Obs ([10]; 70 gae/ha): 15% | Visual Weed Control (%) Obs ([10]; 140 gae/ha): 80% | Visual Weed Control (%) Obs ([11]; 70 gae/ha): 0% | Visual Weed Control (%) Obs ([11]; 140 gae/ha): 0% | Visual Weed Control (%) Obs ([12]; 70 gae/ha): 0% | Visual Weed Control (%) Obs ([12]; 140 gae/ha): 0%

O=C(O)COc1ccc(Cl)cc1Cl [2,4-D DMA Salt, 2-(2,4-dichlorophenoxy)acetic acid with N-methylmethanamine, reference compound]
Visual Weed Control (%) - 21 DAA ECHOR Obs [7, 19]: 15% | SONAR Obs (observed value) ([13]; 35 gae/ha): 20% | SONAR Obs (observed value) ([13]; 70 gae/ha): 85% | Visual Weed Control (%) Obs ([14]; 105 gae/ha): 0% | Visual Weed Control (%) Obs ([14]; 210 gae/ha): 0% | Visual Weed Control (%) Obs ([15]; 52.5 gae/ha): 0% | Visual Weed Control (%) Obs ([15]; 105 gae/ha): 10% | Visual Weed Control (%) Obs ([16]; 52.5 gae/ha): 0% | Visual Weed Control (%) Obs ([16]; 105 gae/ha): 0% | SINAR Obs (observed value) ([17]; 35 gae/ha): 35% | SINAR Obs (observed value) ([17]; 70 gae/ha): 80% | Visual Weed Control (%) - 21 DAA ECHCG Obs ([8]; 140 gae/ha): 0% | Visual Weed Control (%) - 21 DAA ECHCG Obs ([8]; 280 gae/ha): 0% | Visual Weed Control (%) - 21 DAA SCPJU Obs ([9]; 140 gae/ha): 0% | Visual Weed Control (%) - 21 DAA SCPJU Obs ([9]; 280 gae/ha): 0% | CENMA Obs (observed value) ([18]; 35 gae/ha): 30% | CENMA Obs (observed value) ([18]; 70 gae/ha): 50% | Visual Weed Control (%) - 21 DAA LEFCH Obs ([11]; 140 gae/ha): 0% | Visual Weed Control (%) - 21 DAA LEFCH Obs ([11]; 280 gae/ha): 60% | Visual Weed Control (%) - 21 DAA CYPRO Obs [12, 19]: 0%
